Reference: PubChem BioAssay (NCI)
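Each compound was tested at five concentrations against cells in 96-well plates for 48 hours. TGI is the concentration that stops growth completely.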

Assays:
Test in all cases: NCI-60 cell line screen, 48 h
786-0 renal = system: 786-0 renal
A549 NSCLC = system: A549 NSCLC
ACHN renal = system: ACHN renal
CAKI-1 renal = system: CAKI-1 renal
CCRF-CEM leukemia = system: CCRF-CEM leukemia
COLO 205 colon = system: COLO 205 colon
DLD-1 colon = system: DLD-1 colon
DMS 114 small cell lung = system: DMS 114 small cell lung
DMS 273 small cell lung = system: DMS 273 small cell lung
EKVX NSCLC = system: EKVX NSCLC
HCC-2998 colon = system: HCC-2998 colon
HCT-116 colon = system: HCT-116 colon
HOP-62 NSCLC = system: HOP-62 NSCLC
HOP-92 NSCLC = system: HOP-92 NSCLC
HT29 colon = system: HT29 colon
IGROV1 ovarian = system: IGROV1 ovarian
K-562 leukemia = system: K-562 leukemia
KM12 colon = system: KM12 colon
KM20L2 colon = system: KM20L2 colon
LOX IMVI melanoma = system: LOX IMVI melanoma
LXFL 529 NSCLC = system: LXFL 529 NSCLC
M14 melanoma = system: M14 melanoma
M19-MEL melanoma = system: M19-MEL melanoma
MALME-3M melanoma = system: MALME-3M melanoma
MOLT-4 leukemia = system: MOLT-4 leukemia
NCI-H226 lung = system: NCI-H226 lung
NCI-H23 lung = system: NCI-H23 lung
NCI-H460 lung = system: NCI-H460 lung
NCI-H522 lung = system: NCI-H522 lung
OVCAR-3 ovarian = system: OVCAR-3 ovarian
OVCAR-4 ovarian = system: OVCAR-4 ovarian
OVCAR-5 ovarian = system: OVCAR-5 ovarian
OVCAR-8 ovarian = system: OVCAR-8 ovarian
RXF 393 renal = system: RXF 393 renal
SF-268 CNS = system: SF-268 CNS
SF-295 CNS = system: SF-295 CNS
SF-539 CNS = system: SF-539 CNS
SK-MEL-2 melanoma = system: SK-MEL-2 melanoma
SK-MEL-28 melanoma = system: SK-MEL-28 melanoma
SK-MEL-5 melanoma = system: SK-MEL-5 melanoma
SK-OV-3 ovarian = system: SK-OV-3 ovarian
SN12C renal = system: SN12C renal
SNB-19 CNS = system: SNB-19 CNS
SNB-75 CNS = system: SNB-75 CNS
SNB-78 CNS = system: SNB-78 CNS
SR leukemia = system: SR leukemia
SW-620 colon = system: SW-620 colon
TK-10 renal = system: TK-10 renal
U251 CNS = system: U251 CNS
UACC-62 melanoma = system: UACC-62 melanoma
UO-31 renal = system: UO-31 renal
XF 498 CNS = system: XF 498 CNS
A498 renal = system: A498 renal
HL-60(TB) leukemia = system: HL-60(TB) leukemia
RXF-631 renal = system: RXF-631 renal

Measured: TGI

CN(C)CCn1cnc2ncccc2c1=O
not listed: A498 renal | HL-60(TB) leukemia | RXF-631 renal
> 100 µM: all other assays above

CC(C)N(C(=O)C12C3C4C1C1C2C3C41I)C(C)C (centres undefined)
not listed: DLD-1 colon | HOP-62 NSCLC | KM20L2 colon | LOX IMVI melanoma | RXF 393 renal | SF-539 CNS | SK-MEL-2 melanoma | U251 CNS
> 100 µM: all other assays above
